Legend:
[1] = target: T1, Carbonic anhydrase 1 (Homo sapiens, UniProt P00915)
[2] = target: Carbonic anhydrase 12 (Homo sapiens, UniProt O43570)
[3] = target: T2, Carbonic anhydrase 9 (Homo sapiens, UniProt Q16790)
[4] = target: T1, Carbonic anhydrase 1; remark: listed apart in the source
[5] = target: T3, Carbonic anhydrase 2 (Homo sapiens, UniProt P00918)
[6] = target: T3, Carbonic anhydrase 2; remark: listed apart in the source
[7] = target: T2, Carbonic anhydrase 9; remark: listed apart in the source
[8] = system: HSC-4; test: cells; type: functional; conditions: Homo sapiens, time 48 hrs
Description: Cytotoxicity against human HSC-4 cells assessed as cell growth inhibition measured after 48 hrs by MTT assay

[9] = system: HSC-3; test: cells; type: functional; conditions: Homo sapiens, time 48 hrs
Description: Cytotoxicity against human HSC-3 cells assessed as cell growth inhibition measured after 48 hrs by MTT assay

[10] = system: HSC-2; test: cells; type: functional; conditions: Homo sapiens, time 48 hrs
Description: Cytotoxicity against human HSC-2 cells assessed as cell growth inhibition measured after 48 hrs by MTT assay

[11] = system: Ca9-22; test: cells; type: functional; conditions: Homo sapiens, time 48 hrs
Description: Cytotoxicity against human Ca9-22 cells assessed as cell growth inhibition measured after 48 hrs by MTT assay

Sequence of Carbonic anhydrase 12 (O43570 whole entry): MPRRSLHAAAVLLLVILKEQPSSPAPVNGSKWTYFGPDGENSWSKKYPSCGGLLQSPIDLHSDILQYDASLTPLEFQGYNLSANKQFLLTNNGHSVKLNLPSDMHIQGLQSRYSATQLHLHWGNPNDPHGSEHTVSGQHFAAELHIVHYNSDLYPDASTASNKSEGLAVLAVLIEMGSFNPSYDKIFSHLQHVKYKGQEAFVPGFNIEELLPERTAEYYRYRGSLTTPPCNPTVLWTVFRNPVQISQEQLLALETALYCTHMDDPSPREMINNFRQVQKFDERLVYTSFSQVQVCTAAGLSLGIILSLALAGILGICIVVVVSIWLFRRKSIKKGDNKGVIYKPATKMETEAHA
T1 sequence (P00915 whole entry): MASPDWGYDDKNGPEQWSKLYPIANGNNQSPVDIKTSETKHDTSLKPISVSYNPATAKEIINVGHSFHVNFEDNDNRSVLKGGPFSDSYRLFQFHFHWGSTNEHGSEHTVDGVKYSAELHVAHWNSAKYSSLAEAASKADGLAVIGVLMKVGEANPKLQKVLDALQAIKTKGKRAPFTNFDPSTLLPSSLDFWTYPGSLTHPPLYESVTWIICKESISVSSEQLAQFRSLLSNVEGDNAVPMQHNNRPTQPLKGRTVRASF

In the case of `Cc1ccc(/C=C2/SC(=O)N(CC(=O)O)C2=O)cc1`, the Ki [1] is reported as greater than 100 µM, the Kis [2] is reported as 0.3 µM and the Ki [3] is reported as greater than 100 µM.

For `O=C(O)CN1C(=O)S/C(=C/c2ccccc2Cl)C1=O`, the Ki [1] was greater than 100 µM and the Kis [2] was 0.3 µM.

`Brc1ccc(NN=C2C(c3ccccc3)=NN=C2c2ccccc2)cc1` gave a Ki [4] of 1.06 nM and a Ki [5] of 0.68 nM.

In the case of `O=C1/C(=C\c2ccc(O)c(CN3CCN(c4ccc(F)cc4)CC3)c2)Cc2ccccc21`, the Ki [6] is reported as 51.1 nM.

Compound `O=C1/C(=C\c2ccc(O)c(CN3CCN(Cc4ccccc4)CC3)c2)Cc2ccccc21` has a Ki [6] of 51.1 nM.

In the case of `COc1cccc(/C=C2/SC(=O)N(CC(=O)O)C2=O)c1`, the Ki [1] is reported as greater than 100 µM, the Kis [2] is reported as 0.3 µM and the Ki [3] is reported as greater than 100 µM.

Work on `NS(=O)(=O)c1ccc(C(=O)NN2C(=O)c3c(Cl)c(Cl)c(Cl)c(Cl)c3C2=O)cc1` yielded a Kis [7] of 3 nM.

`CS(=O)(=O)Cc1c(Br)c(O)c(O)c(Br)c1Br` was tested, and the Ki [6] was 42.8 nM.

For `COc1ccc(/C=C2/SC(=O)N(CC(=O)O)C2=O)cc1`, the Ki [1] was greater than 100 µM, the Kis [2] was 0.3 µM and the Ki [3] was 3.1 µM.

With `O=C1/C(=C\c2ccc(O)c(CN3CCN(c4ccccc4F)CC3)c2)Cc2ccccc21` the Ki [6] was 51.1 nM.

`COc1ccc(C2CC(c3ccc(Br)cc3)=NN2c2ccc(S(N)(=O)=O)cc2)c(OC)c1` (stereo unspecified) gave a CC50 [8] of 15 µM, a CC50 [9] of 15 µM and a CC50 [10] of 15 µM. It also gave a CC50 [11] of 15 µM.

`COc1ccc(C2CC(c3ccc(F)cc3)=NN2c2ccc(S(N)(=O)=O)cc2)c(OC)c1` (stereo unspecified) showed a CC50 [8] of 15 µM, a CC50 [9] of 15 µM and a CC50 [10] of 15 µM. The CC50 [11] was 15 µM.

In the case of `COc1ccc(C2CC(c3ccccc3)=NN2c2ccc(S(N)(=O)=O)cc2)cc1OC` (stereo unspecified), the CC50 [8] is reported as 15 µM, the CC50 [9] is reported as 15 µM and the CC50 [10] is reported as 15 µM. It also gave a CC50 [11] of 15 µM.

`NS(=O)(=O)c1ccc(C(=O)NN2C(=O)c3cc(Cl)c(Cl)cc3C2=O)cc1` gave a Kis [7] of 3 nM.

Compound `Brc1ccc(/N=N/c2c(-c3ccccc3)nn(-c3ccc(Br)cc3)c2-c2ccccc2)cc1` has a Ki [4] of 1.06 nM and a Ki [5] of 0.68 nM.

Compound `COc1ccc(C2CC(c3ccc(Cl)cc3)=NN2c2ccc(S(N)(=O)=O)cc2)c(OC)c1` (stereo unspecified) has a CC50 [8] of 15 µM, a CC50 [9] of 15 µM and a CC50 [10] of 15 µM. It also gave a CC50 [11] of 15 µM.

Compound `COc1ccc(C2CC(c3ccc(F)cc3)=NN2c2ccc(S(N)(=O)=O)cc2)cc1OC` (stereo unspecified) has a CC50 [8] of 15 µM, a CC50 [9] of 15 µM and a CC50 [10] of 15 µM. The CC50 [11] was 15 µM.

For `O=[N+]([O-])c1ccccc1-n1nc(-c2ccccc2)c(/N=N/c2ccc(Br)cc2)c1-c1ccccc1`, the Ki [4] was 1.06 nM and the Ki [5] was 0.68 nM.

`NS(=O)(=O)c1ccc(C(=O)NN2C(=O)c3cccc4cc([N+](=O)[O-])cc(c34)C2=O)cc1` gave a Kis [7] of 3 nM.

`O=C(O)CN1C(=O)S/C(=C/c2ccc(Cl)cc2)C1=O` was tested, and the Ki [1] was greater than 100 µM, the Kis [2] was 0.3 µM and the Ki [3] was 3.1 µM.

`O=C(O)CN1C(=O)S/C(=C/c2ccc(Br)cc2)C1=O` showed a Ki [1] greater than 100 µM and a Kis [2] of 0.3 µM.

Compound `Cn1nc(-c2ccccc2)c(/N=N/c2ccc(Br)cc2)c1-c1ccccc1` has a Ki [4] of 1.06 nM and a Ki [5] of 0.68 nM.

Work on `COc1ccc(C2CC(c3ccccc3)=NN2c2ccc(S(N)(=O)=O)cc2)c(OC)c1` (stereo unspecified) yielded a CC50 [8] of 15 µM, a CC50 [9] of 15 µM and a CC50 [10] of 15 µM. For the same compound, the CC50 [11] was 15 µM.

Work on `Cc1ccc(C)c(-n2nc(-c3ccccc3)c(/N=N/c3ccc(Br)cc3)c2-c2ccccc2)c1` yielded a Ki [4] of 1.06 nM and a Ki [5] of 0.68 nM.

`CCn1nc(-c2ccccc2)c(/N=N/c2ccc(Br)cc2)c1-c1ccccc1` was tested, and the Ki [4] was 1.06 nM and the Ki [5] was 0.68 nM.

Work on `NS(=O)(=O)c1ccc(C(=O)NN2C(=O)c3cccc4cccc(c34)C2=O)cc1` yielded a Kis [7] of 3 nM.

`COc1ccc(C2CC(c3ccc(Cl)cc3)=NN2c2ccc(S(N)(=O)=O)cc2)cc1OC` (stereo unspecified) was tested, and the CC50 [8] was 15 µM, the CC50 [9] was 15 µM and the CC50 [10] was 15 µM. The CC50 [11] was 15 µM.

In the case of `O=C(O)CN1C(=O)S/C(=C/c2ccccc2)C1=O`, the Ki [1] is reported as greater than 100 µM and the Kis [2] is reported as 0.3 µM.

For `Brc1ccc(/N=N/c2c(-c3ccccc3)nn(-c3ccccc3)c2-c2ccccc2)cc1`, the Ki [4] was 1.06 nM and the Ki [5] was 0.68 nM.

`NS(=O)(=O)c1ccc(C(=O)NN2C(=O)c3c(Br)c(Br)c(Br)c(Br)c3C2=O)cc1` gave a Kis [7] of 3 nM.

`Cc1ccc(-n2nc(-c3ccccc3)c(/N=N/c3ccc(Br)cc3)c2-c2ccccc2)cc1C` was tested, and the Ki [4] was 1.06 nM and the Ki [5] was 0.68 nM.

Reference: ChEMBL document CHEMBL5104090, “Recent advances in the medicinal chemistry of carbonic anhydrase inhibitors” (Eur J Med Chem, 2021)
